According to patent US20100068150A1, “Selective Caspase Inhibitors” (The Board of Trustees of the Leland Stanford Junior …, priority 2006, published 2010):

Tested on: endogenous caspases-3, 7, 9 and exogenous recombinant caspase-8 in 293 extracts
Assay: Labeling in 293 extracts with exogenous recombinant caspase-8 and cytochrome c/dATP
Type: binding
Procedure: (a.) Hypotonic 293 cytosolic extracts were induced to undergo intrinsic apoptosis by addition of cytochrome c/dATP. […] Samples were analyzed by SDS-PAGE followed by biotin blotting using streptavidin-HRP. (b) The identity of individual caspases was confirmed via immunoprecipitation using specific anti-sera for caspases-3, 7 and 9 (also see FIG. 5B for immunoprecipitation of caspases-3 and 7 after KMB01 labeling). Extracts (293) were activated with cytochrome c/dATP for 10 minutes, labeled by addition of indicated probes (100 nM final concentration for bAB06 and bAB13 and 10 μM final concentration for KMB01) and labeled caspases precipitated using specific anti-sera as described in the Methods section. I is input, P is pellet, S is supernatant after specific precipitation. […] Labeling of caspases was monitored by SDS-PAGE followed by biotin blotting with streptavidin-HRP. […]
Selective labeling of endogenous caspases in cell extracts and live cells with active site probes was carried out as follows: Hypotonic 293 cytosolic extracts were induced to undergo intrinsic apoptosis by addition of cytochrome c/dATP. […] Samples were analyzed by SDS-PAGE followed by biotin blotting using streptavidin-HRP. […] Labeling of caspases was monitored by SDS-PAGE followed by biotin blotting with streptavidin-HRP. […]
Protein concentration of hypotonic extracts was measured using a standard Bradford Protein Assay (BioRad). […]

Compound	inhibition of caspases in 293 extracts with added caspase-8 (AB06 10 μM added in conjunction with cytochrome c/dATP)	labeling of caspases in 293 extracts with added caspase-8 (recombinant caspase-8 100 nM, cytochrome c/dATP, probes 10 μM, 30 min)
Cc1cccc(C)c1C(=O)OCC(=O)[C@H](CC(=O)O)NC(=O)[C@@H](NC(=O)[C@H](Cc1ccncc1)NC(=O)[C@H](CC(=O)O)NC(=O)Cc1ccc(O)c([N+](=O)[O-])c1)C(C)C [AB06, Np-D-3-V-D-DMBA]	caspases-3 and 7 were selectively inhibited	–
Bio-EVD-AOMK [KMB01, reference compound]	–	strong labeling of the endogenous caspases-3, 7, and 9 as well as the exogenously added caspase-8
